Where two headings read alike, the source gives them in different places. Values belong to the compound of their own block, whether it stands above or below them.
Columns and labels:
LacAnc100 [1] = conditions: read-out: LacAnc100; room temperature; 100 mM sodium phosphate/citrate pH 4.0; air O2 as co-substrate
LacAnc98 [2] = conditions: read-out: LacAnc98; room temperature; 100 mM sodium phosphate/citrate pH 4.0; air O2 as co-substrate
LacAnc98 [3] = assay: spectrophotometric steady-state kinetics, […] nm; assay type: biochemical, synthetic construct; conditions: room temperature; 100 mM sodium phosphate/citrate pH 5.0; air O2 as co-substrate
OB-1 [4] = target: T1, OB-1 (basidiomycete PM1, UniProt Q12571, V183A/H229Y/S245G/A260P/D302E/S447N/A482T, form not given); assay: spectrophotometric steady-state kinetics, […] nm; assay type: biochemical; conditions: room temperature; 100 mM sodium phosphate/citrate pH 5.0; air O2 as co-substrate
T1 construct: N-terminal extension from leader processing (EAEA site) possible

LacAnc100 [5] = assay: spectrophotometric steady-state kinetics, […] nm; assay type: biochemical, synthetic construct; conditions: room temperature; 100 mM sodium phosphate/citrate pH 5.0; air O2 as co-substrate
LacAnc98 [6] = assay: spectrophotometric steady-state kinetics, […] nm; assay type: biochemical, synthetic construct; conditions: room temperature; 100 mM sodium phosphate/citrate pH 5.0; air O2 as co-substrate; remark: listed apart in the source
OB-1 [7] = target: T1, OB-1; assay: spectrophotometric steady-state kinetics, […] nm; assay type: biochemical; conditions: room temperature; 100 mM sodium phosphate/citrate pH 5.0; air O2 as co-substrate; remark: listed apart in the source
LacAnc100 [8] = assay: spectrophotometric steady-state kinetics, […] nm; assay type: biochemical, synthetic construct; conditions: room temperature; 100 mM sodium phosphate/citrate pH 5.0; air O2 as co-substrate; remark: listed apart in the source
LacAnc100 [9] = assay: spectrophotometric steady-state kinetics, […] nm; assay type: biochemical, synthetic construct; conditions: room temperature; 100 mM sodium phosphate/citrate pH 5.0; air O2 as co-substrate; remark: listed apart in the source
OB-1 [10] = target: T1, OB-1; assay: spectrophotometric steady-state kinetics, […] nm; assay type: biochemical; conditions: room temperature; 100 mM sodium phosphate/citrate pH 5.0; air O2 as co-substrate; remark: listed apart in the source
LacAnc98 [11] = assay: spectrophotometric steady-state kinetics, […] nm; assay type: biochemical, synthetic construct; conditions: room temperature; 100 mM sodium phosphate/citrate pH 5.0; air O2 as co-substrate; remark: listed apart in the source

T1 sequence (Q12571 entry or part of it V183A/H229Y/S245G/A260P/D302E/S447N/A482T, form open): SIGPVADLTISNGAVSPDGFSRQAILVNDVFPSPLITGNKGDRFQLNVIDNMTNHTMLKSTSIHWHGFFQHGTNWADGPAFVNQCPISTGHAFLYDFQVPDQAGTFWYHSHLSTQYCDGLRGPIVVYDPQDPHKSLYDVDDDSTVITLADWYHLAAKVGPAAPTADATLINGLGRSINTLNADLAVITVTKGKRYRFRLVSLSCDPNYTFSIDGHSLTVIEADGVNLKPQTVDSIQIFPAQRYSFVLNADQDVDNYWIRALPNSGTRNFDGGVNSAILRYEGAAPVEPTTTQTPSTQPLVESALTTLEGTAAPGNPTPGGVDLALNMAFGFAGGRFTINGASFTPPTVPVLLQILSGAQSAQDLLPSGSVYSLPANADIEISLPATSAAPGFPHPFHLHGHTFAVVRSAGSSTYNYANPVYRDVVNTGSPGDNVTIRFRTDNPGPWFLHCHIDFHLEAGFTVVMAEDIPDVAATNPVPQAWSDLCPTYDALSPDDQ

- Km (LacAnc100 [1]): 60 ± 1 µM
- Km (LacAnc98 [2]): 69 ± 2 µM
Structure (SMILES): CCn1c(=NN=c2sc3cc(S(=O)(=O)O)ccc3n2CC)sc2cc(S(=O)(=O)O)ccc21 [ABTS]

- Km (LacAnc98 [3]): 420 ± 20 µM
- Km (OB-1 [4]): 150 ± 10 µM
- Km (LacAnc100 [5]): 500 ± 20 µM
Structure (SMILES): COc1cccc(OC)c1O [DMP]

- Km (LacAnc98 [6]): 8700 ± 300 µM
- Km (OB-1 [7]): 2600 ± 400 µM
- Km (LacAnc100 [8]): 6700 ± 700 µM
Structure (SMILES): COc1ccccc1O [Guaiacol]

- Km (LacAnc100 [9]): 330 ± 70 µM
- Km (OB-1 [10]): 320 ± 20 µM
- Km (LacAnc98 [11]): 230 ± 40 µM
Structure (SMILES): COc1cc(/C=C/C(=O)O)cc(OC)c1O [Sinapic acid]

From PMC7357490, “Ancestral Resurrection and Directed Evolution of Fungal Mesozoic Laccases” (Applied and Environmental Microbiology, 2020)
